Results published in patent US20050250853A1, “Beta-tubulin inhibitors” (priority 1999, published 2005).
“Also recorded” adds a separate entry of the source. Like-named read-outs stand apart in the source and are kept apart here. Marks after values point to notes of the source that are not given here.

Columns and labels:
MDA-MB-231 cells [1] = assay: cells; type: cell-based, human
Procedure: (§1) Human breast carcinoma cell line, MDA-MB-231, was obtained from the American Type Culture Collection (ATCC HTB-26; Bethesda, Md.). MDA-MB-231 cells were grown in RPMI 1640 medium supplemented with 10% bovine calf serum (Hyclone, Road Logan, Utah). Wild-type Chinese Hamster Ovary cells (CHO-10001) (7), colchicine- and vinblastine-resistant (CHO-VV 3-2) (8) and taxol-resistant (CHO-TAX 5-6) cells (9) were generously provided by Dr. Fernando Cabral (University of Texas Medical School, Houston, Tex.). These cells were cultured in RPMI 1640 containing 10% fetal bovine serum. SK—N—SH human neuroblastoma cells, (ATCC HTB-11; Bethesda, Md.) were cultured in MEM medium supplemented with 2 mM L-glutamine, 1.5 g/liter sodium bicarbonate, 0.1 mM non-essential amino acids, 1 mM sodium pyruvate and 10% fetal bovine serum. Cells were cultured in a humidified atmosphere at 37° C. in 5% CO2.
(§2) Cytotoxicity was assessed using the MTT assay (3-(4,5-dimethylthiazol-2-yl)-2,5-diphenyltetrazolium bromide) as described by Carmichael et al. (12).

[2] = Kinetics of alkylation of 4-(4-nitrobenzyl)pyridine (colorimetric assay); type: physicochemical; conditions: 80° C., pH 4.3, absorbance at 570 nm, linear regression, mean ± SD
Procedure: The rate constant of alkylation (K′) of CEU derivatives and chlorambucil was evaluated by a […] assay as described by Bardos et al (13). Briefly, 1 ml of a 10% (v/v) solution of 4-(4-nitrobenzyl)pyridine in ethanol and 1 ml of 50 mM sodium acetate (pH 4.3) were added to an ethanol solution (95%) containing 400 nmol per ml of either chlorambucil or CEU and heated to 80° C. in a shaking water bath for 60, 90, 120 or 150 min. The reaction was stopped by cooling the mixtures on ice for 5 min. Then, 1.5 ml of 0.1 M KOH: ethanol (1:2, v/v) were added to the reaction mixture. Samples were vortexed for 12 sec and set aside for 2.5 min prior to reading the absorbance at 570 nm. The values were compared with those obtained using a blank sample containing all reagents except the alkylating agent.

[3] = system: CHO 10001 cells (wild-type); assay: MTT cytotoxicity on wild-type CHO cells; type: cell-based, Chinese hamster; conditions: Cricetulus griseus, CHO10001, 120 h, read-out: IC50 CHO 10001
Procedure: as §1, with “Wild-type Chinese Hamster Ovary cells (CHO-10001) (7), colchicine- and vinblastine-resistant (CHO-VV 3-2) (8) and taxol-resistant (CHO-TAX 5-6) cells (9) were generously provided by Dr. Fernando Cabral (University of Texas Medical School, Houston, Tex.).” left out
as §2
(§3) The cytotoxicity of 4-tBCEU, 4-iPCEU and 4-sBCEU in two CHO cell lines having differential sensitivity to antmicrotubule agents was evaluated. These cell lines are derived from parental CHO-10001 cells and express mutated tubulins.

CHO TAX 5-6 cells = assay: MTT cytotoxicity on taxol-resistant CHO cells expressing mutated tubulin; type: cell-based, Chinese hamster; conditions: Cricetulus griseus, CHO-TAX 5-6, 120 h, read-out: IC50 CHO TAX 5-6
Procedure: as §1, with “Wild-type Chinese Hamster Ovary cells (CHO-10001) (7), colchicine- and vinblastine-resistant (CHO-VV 3-2) (8) and taxol-resistant (CHO-TAX 5-6) cells (9) were generously provided by Dr. Fernando Cabral (University of Texas Medical School, Houston, Tex.).” left out
as §2, §3

CHO VV 3-2 cells = assay: MTT cytotoxicity on vinblastine- and colchicine-resistant CHO cells expressing mutated tubulin; type: cell-based, Chinese hamster; conditions: Cricetulus griseus, CHO-VV 3-2, 120 h, read-out: IC50 CHO VV 3-2
Procedure: as §1, with “Wild-type Chinese Hamster Ovary cells (CHO-10001) (7), colchicine- and vinblastine-resistant (CHO-VV 3-2) (8) and taxol-resistant (CHO-TAX 5-6) cells (9) were generously provided by Dr. Fernando Cabral (University of Texas Medical School, Houston, Tex.).” left out
as §2, §3

MDA-MB-231 cells [4] = assay: Cell cycle analysis by propidium iodide flow cytometry; type: cell-based, human; conditions: for speed of induction of cell cycle arrest in G2+M compared with 4-tBCEU: 30 μM, 24 or 48 h; for accumulation of cells in G2+M: CEU derivatives at 30 μM, 24 h, flow cytometry
Procedure: FIG. 1. Effect of CEU derivatives on cell cycle. Exponentially growing MDA-MB-231 cells were incubated in the absence or presence of 30 μM of either 4-tBCEU, 4-iPCEU or 4-sBCEU for 24 and 48 h, respectively, at 37° C. The cell cycle was evaluated using propidium iodide staining and flow cytometric analysis. Data are representative of three independent experiments.
Following incubation of MDA-MB-231 cells with 4-tBCEU, 4-iPCEU or 4-sBCEU, the cells were harvested, resuspended in 1 ml PBS and fixed by the addition of 2.4 ml of ice cold anhydrous ethanol. Then, 5×10^5 cells from each sample were centrifuged for 3 min at 1000×g. Cell pellets were resuspended in PBS containing 50 μg/ml of PI and 40 U/ml of ribonuclease A (Boehringer Mannheim, Laval, Calif.). Mixtures were incubated at room temperature for 30 min and cell cycle distribution was analyzed using an Epics Elite ESP flow cytometer (Coulter Corporation, Miami, Fla., USA).
The effect of CEU, namely 4-tBCEU, 4-PCEU and 4-sBCEU, on the cell cycle was analyzed. To this end, exponentially growing MDA-MB-231 cells were treated with 30 μM 4-tBCEU, 4-iPCEU or 4-sBCEU for 24 or 48 h followed by an evaluation of cell cycle distribution by flow cytometry using propidium iodide, a fluorescent DNA dye. […] Induction of mitosis blockage in prophase by CEU derivatives was confirmed by mitotic index analysis as described by Drouin (22).

β-tubulin = assay: Separation of soluble and polymerized tubulins, Western blot of β-tubulin; type: cell-based, human; conditions: MDA-MB-231 cells, 30 μM, 24 h and 48 h; for formation of modified β-tubulin (second immunoreactive band of lower Mr): free tubulin fraction
Procedure: FIG. 2. Effects of CEU derivatives on microtubule depolymerization. Exponentially growing MDA-MB-231 cells were incubated in the absence or the presence of 30 μM of CEU derivatives including (A) 4-tBCEU, 4-iPCEU or 4-sBCEU for 24 and 48 h respectively; (B) 2-ECEU, 3-ECEU or 4-ECEU for 24 and 48 h; and (C) 4-tBEU, 4-iPEU, 4-sBEU, 4-tBCPU, CEU or 4-methoxyCEU for 48 h. Free tubulin and microtubule fractions were isolated and analyzed by Western blot. Data are representative of three different experiments.
Separation of soluble and polymerized tubulins from MDA-MB231 cells was carried out as described by Minotti et al. (14) with minor modifications. Briefly, after drug exposure, about 5×10^6 cells in 100-mm petri dishes were washed with PBS at 37° C. and harvested in 3 ml of PBS containing 0.4 μg/ml of taxol using a rubber policeman.
Cells were centrifuged and lysed using 250 μl of microtubule-stabilizing buffer (20 mM Tris-HCl, pH 6.8, 140 mM NaCl, 1 mM MgCl2, 2 mM EDTA, 0.5% Nonidet P-40 and 0.4 μg/ml taxol), and then transferred to 1.5 ml microcentrifuge tubes. Samples were centrifuged at 12,000×g for 10 min at 4° C. and the supernatants containing soluble tubulin were placed in separate microcentrifuge tubes containing 250 μl of 2× Laemmli sample buffer (15). Pellets containing the polymerized tubulin were resuspended in 250 μl of water, followed by two freeze/thawing cycles, and the addition of 250 μl of 2× Laemmli sample buffer. Samples were analyzed by SDS-PAGE and immunoassay was performed as described below.
Samples (1×10^5 cells) were analyzed by 10% SDS-PAGE using the Laemmli system (15). Membranes were then incubated with PBSMT (PBS, pH 7.4, 5% fat-free dry milk and 0.1% Tween-20) for 1 h at room temperature, and then with 1:500 monoclonal anti-β-tubulin (clone TUB 2.1, Sigma) or 1:400 anti (clone no. SDL.3D10, Sigma) for 1 h. […] Membranes were washed with PBSMT and incubated with 1:2500 peroxidase-conjugated anti-mouse immunoglobulin (Amersham Canada, Oakville, Canada) in PBSMT for 30 min. Detection of the immunoblot was carried out with the ECL Western blotting detection reagent kit (Amersham Canada, Oakville, Canada).

[5] = Homo sapiens, MDA-MB-231, concentration inhibiting 50% of cell growth, MTT assay, mean ± SD, read-out: IC50 (μM) MDA-MB-231
[6] = concentration inhibiting 50% of cell growth, MTT assay, mean ± SD, read-out: IC50 (μM) MDA-MB-231

Question: For O=C(O)CCCc1ccc(N(CCCl)CCCl)cc1 [CBL, Chlorambucil, reference compound], which IC50 (MDA-MB-231 cells [1]; Homo sapiens, MDA-MB-231, read-out: IC50 (μM) MDA-MB-231) is on record?
Answer: 9.3 ± 3.5 µM

Question: And the “K′ (constant of alkylation of 4-(4-nitrobenzyl)pyridine)” value [2]?
Answer: 38.9 ± 5.1^a

Question: For CC(C)c1ccc(NC(=O)NCCCl)cc1 [Example 4-iPCEU, 4-iso-propyl[3-(2-chloroethyl)ureido]benzene], which “cytotoxicity in words (active / inactive CEU)” value (MDA-MB-231 cells [1]) is on record?
Answer: active

Question: What about the IC50 (MDA-MB-231 cells [1]; [5]) of the same molecule?
Answer: 2 µM

Question: And the IC50 (MDA-MB-231 cells [1]; [6])?
Answer: 2.2 ± 0.3 µM

Question: What about the “K′ (constant of alkylation of 4-(4-nitrobenzyl)pyridine)” value [2] of the same molecule?
Answer: 3.0 ± 0.1^a

Question: And the IC50 [3]?
Answer: 4.4 ± 0.2 µM

Question: What about the IC50 (CHO TAX 5-6 cells) of the same molecule?
Answer: 2 ± 0.1 µM

Question: What about the IC50 (CHO VV 3-2 cells) of the same molecule?
Answer: 7.7 ± 0.4 µM

Question: And the “speed of induction of cell cycle arrest in G2+M compared with 4-tBCEU” value (MDA-MB-231 cells [4])?
Answer: more rapidly

Question: And the “accumulation of cells in G2+M” value (MDA-MB-231 cells [4])?
Answer: significant accumulation of cells in the G2+M

Question: What about the microtubule depolymerization (β-tubulin) of the same molecule?
Answer: complete microtubule depolymerization

Question: And the “formation of modified β-tubulin (second immunoreactive band of lower Mr)” value (β-tubulin)?
Answer: second immunoreactive band; also recorded: slighly faster than for 4-tBCEU

Question: Which “cytotoxicity in words (active / inactive CEU)” value (MDA-MB-231 cells [1]) does the source give for CCC(C)c1ccc(NC(=O)NCCCl)cc1 (stereo not drawn) [Example 4-sBCEU, 4-sec-butyl[3-(2-chloroethyl)ureido]benzene] here?
Answer: active

Question: What about the IC50 (MDA-MB-231 cells [1]; [5]) of the same molecule?
Answer: 2 µM

Question: And the IC50 (MDA-MB-231 cells [1]; [6])?
Answer: 2.3 ± 0.1 µM

Question: What about the “K′ (constant of alkylation of 4-(4-nitrobenzyl)pyridine)” value [2] of the same molecule?
Answer: 3.1 ± 0.3^a

Question: What about the IC50 [3] of the same molecule?
Answer: 5 ± 0.2 µM

Question: What about the IC50 (CHO TAX 5-6 cells) of the same molecule?
Answer: 2.1 ± 0.1 µM

Question: What about the IC50 (CHO VV 3-2 cells) of the same molecule?
Answer: 8.2 ± 0.4 µM

Question: And the “speed of induction of cell cycle arrest in G2+M compared with 4-tBCEU” value (MDA-MB-231 cells [4])?
Answer: more rapidly

Question: And the “accumulation of cells in G2+M” value (MDA-MB-231 cells [4])?
Answer: significant accumulation of cells in the G2+M

Question: What about the microtubule depolymerization (β-tubulin) of the same molecule?
Answer: complete microtubule depolymerization

Question: What about the “formation of modified β-tubulin (second immunoreactive band of lower Mr)” value (β-tubulin) of the same molecule?
Answer: second immunoreactive band; also recorded: slighly faster than for 4-tBCEU
